Data from patent publication US20200131669A1, “CYCLIC PEPTIDE COMPOUND HAVING HIGH MEMBRANE PERMEABILITY, AND LIBRARY CONTAINING SAME” (Chugai Seiyaku Kabushiki Kaisha, priority 2017, published 2020).
Starred links: 1 amine or outer side, 2 acyl side, 3 side chain; linkers in the order of their positions; H or OH if unused. Positions of bridges follow the written chain, without caps; N, C: chain ends. Non-standard residues stand in square brackets, D forms with d. Residues, ends and D or L forms follow the SMILES beside them. *: point of attachment. NMeAbu(3,3-F2-piperidino) = CN[C@@H](CCN1CCCC(F)(F)C1)C(=O)O; X10 = O=C([C@H]1C[C@@H](N2CCC(F)(F)CC2)CN1[*:1])[*:2]; X13 = O=C([C@@H]1C[C@H](N2CCC(F)(F)CC2)CN1[*:1])[*:2]; NMeAla(4-thiazolyl) = CN[C@@H](Cc1cscn1)C(=O)O; Phe(4-CHF2) = N[C@@H](Cc1ccc(C(F)F)cc1)C(=O)O; NMePhe(3-Cl) = CN[C@@H](Cc1cccc(Cl)c1)C(=O)O; X12 = CCCC[C@@H](O)[C@H](N[*:1])C(=O)[*:2]; hPhe(4-Cl) = N[C@@H](CCc1ccc(Cl)cc1)C(=O)O; X8 = O=C(CN(CCN1CCC(F)(F)CC1)[*:1])[*:2]; hhPhe = N[C@@H](CCCc1ccccc1)C(=O)O; X3 = O=C([C@H](CCCCO)N[*:1])[*:2]; NMeF = CN[C@@H](Cc1ccccc1)C(=O)O; NMeGABA = CN(CCCC(=O)[*:2])[*:1]; NMeI = CC[C@H](C)[C@H](NC)C(=O)O; CH2CONHtBu = CC(C)(C)NC(=O)C*; NMeL = CN[C@@H](CC(C)C)C(=O)O; NMeV = CN[C@H](C(=O)O)C(C)C; NMeAbu = CC[C@H](NC)C(=O)O; NPentylGly = CCCCCNCC(=O)O; hSer = N[C@@H](CCO)C(=O)O; NMeA = CN[C@@H](C)C(=O)O; Piperidide = C1CCN(*)CC1; dAbu = CC[C@@H](N)C(=O)O; CH2CMe2OH = CC(C)(O)C*; NBuGly = CCCCNCC(=O)O; NPrGly = CCCNCC(=O)O; Sar = CNCC(=O)O; tBu = CC(C)(C)*; CHF2 = FC(F)*

System: Caco-2 cells
Experiment: Caco-2 membrane permeability, improved method as used in the following Examples (96-well, 20 to 24 h preincubation)
Assay type: in vitro ADME
Conditions: Papp, Caco-2 membrane permeability, improved method
Outline: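 Caco-2 monolayers were grown three weeks and preincubated 20–24 h at 37 °C with compound in DMEM+FaSSIF (1% DMSO) apically. The assay then used compound in FaSSIF/HBSS (1% DMSO, pH 6.0) apically and HBSS with 4% BSA (pH 7.4) basally. Basal samples were taken at 180 min for LC/MS, and Papp (cm/sec) was calculated.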

Row | Compound | Caco-2 [cm/s]
1 | CCOCC[C@@H]1NC(=O)[C@H](CC(C)C)N(C)C(=O)CN(C)C(=O)[C@H]([C@@H](C)O)NC(=O)[C@H](CC(C)C)N(C)C(=O)[C@H](CC(C)C)NC(=O)[C@H](Cc2ccccc2)N(C)C(=O)[C@@H](CC(C)C)NC(=O)C[C@@H](C(=O)N2CCCCC2)NC(=O)[C@H](CC(C)C)N(C)C(=O)[C@H](Cc2ccccc2)N(C)C1=O [pd444] ([dL][NMeF]L[NMeL]T[Sar][NMeL][hSer](Et)[NMeF][NMeL]D-Piperidide; lactam N-11) | 1.1e-06
2 | CC(C)C[C@H]1C(=O)N[C@@H](CCCCO)C(=O)N(C)[C@@H](CC(C)C)C(=O)N(C)[C@@H](CC(C)C)C(=O)N[C@H](C(=O)N2CCCCC2)CC(=O)N(C)CCCC(=O)N(C)[C@@H](C(C)C)C(=O)N[C@@H](C(C)C)C(=O)N(C)[C@@H](Cc2ccccc2)C(=O)N(C)[C@@H](Cc2ccccc2)C(=O)N[C@@H](COC(C)(C)C)C(=O)N1C [pd447] ([NMeGABA][NMeV]V[NMeF][NMeF]S(tBu)[NMeL][X3][NMeL][NMeL]D-Piperidide; lactam N-11) | 1.1e-06

Same assay, conditions: human, Caco-2, 180 min

Row | Compound | Caco-2 [cm/s]
3 | CC(C)C[C@H]1C(=O)N[C@@H](COC(C)(C)C)C(=O)N(C)[C@@H](Cc2ccccc2)C(=O)N(C)[C@@H](C(C)C)C(=O)N[C@H](C(=O)N2CCCCC2)CC(=O)N[C@H](C(C)C)C(=O)N(C)[C@@H](C)C(=O)N[C@@H](CCc2ccc(Cl)cc2)C(=O)N(C)[C@@H](CC(C)C)C(=O)N[C@@H]([C@@H](C)O)C(=O)N(C)CC(=O)N1C [pd359] ([dV][NMeA][hPhe(4-Cl)][NMeL]T[Sar][NMeL]S(tBu)[NMeF][NMeV]D-Piperidide; lactam N-11) | 1.1e-06
4 | CC(C)C[C@H]1C(=O)N[C@H](C(=O)N2CCCCC2)CC(=O)N(C)[C@@H](C)C(=O)N[C@@H](CCc2ccc(Cl)cc2)C(=O)N(C)[C@@H](CC(C)C)C(=O)N(C)[C@@H](CC(C)C)C(=O)N[C@@H](C)C(=O)N(C)[C@@H](Cc2ccccc2)C(=O)N(C)[C@@H](C(C)C)C(=O)N[C@@H]([C@@H](C)O)C(=O)N(C)CC(=O)N1C [pd361] ([NMeA][hPhe(4-Cl)][NMeL][NMeL]A[NMeF][NMeV]T[Sar][NMeL]D-Piperidide; lactam N-11) | 1.1e-06
5 | CC(C)C[C@H]1C(=O)N[C@@H](COC(C)(C)C)C(=O)N(C)[C@@H](Cc2ccccc2)C(=O)N(C)[C@@H](C)C(=O)N[C@H](C(=O)N2CCCCC2)CC(=O)N[C@H](C(C)C)C(=O)N(C)[C@@H](Cc2ccccc2)C(=O)N[C@@H](CCCc2ccccc2)C(=O)N(C)[C@@H](CC(C)C)C(=O)N[C@@H]([C@@H](C)O)C(=O)N(C)CC(=O)N1C [pd363] ([dV][NMeF][hhPhe][NMeL]T[Sar][NMeL]S(tBu)[NMeF][NMeA]D-Piperidide; lactam N-11) | 1.1e-06
6 | CC(C)C[C@@H]1NC(=O)[C@H](CCN2CCCC(F)(F)C2)N(C)C(=O)[C@@H](C(C)C)NC(=O)C[C@@H](C(=O)N2CCCCC2)NC(=O)[C@H](C)N(C)C(=O)[C@H](Cc2cccc(Cl)c2)N(C)C(=O)[C@H](CC(C)C)NC(=O)[C@H](CC(C)C)N(C)C(=O)CN(C)C(=O)[C@H]([C@@H](C)O)NC(=O)[C@H](Cc2ccccc2)N(C)C1=O [pd389] ([dV][NMeAbu(3,3-F2-piperidino)]L[NMeF]T[Sar][NMeL]L[NMePhe(3-Cl)][NMeA]D-Piperidide; lactam N-11) | 1.1e-06
7 | CCCCCN1CC(=O)N[C@@H](COC(C)(C)C)C(=O)N(C)[C@@H](Cc2ccccc2)C(=O)N(C)[C@@H](CC(C)C)C(=O)N[C@H](C(=O)N2CCCCC2)CC(=O)N[C@H](CC(C)C)C(=O)N(C)[C@@H](Cc2ccccc2)C(=O)N[C@@H]([C@@H](C)CC)C(=O)N(C)[C@@H](CC)C(=O)N[C@@H]([C@@H](C)O)C(=O)N(C)CC1=O [pd406] ([dL][NMeF]I[NMeAbu]T[Sar][NPentylGly]S(tBu)[NMeF][NMeL]D-Piperidide; lactam N-11) | 1.1e-06
8 | CCCN1CC(=O)N(C)[C@@H](Cc2ccccc2)C(=O)N[C@@H]([C@@H](C)CC)C(=O)N(C)[C@@H](CC(C)C)C(=O)N[C@@H]([C@@H](C)O)C(=O)N(CCC)CC(=O)N(C)[C@@H](Cc2ccccc2)C(=O)N(C)[C@@H](CC(C)C)C(=O)N[C@@H](COCC(C)(C)O)C(=O)N(C)[C@@H](C(C)C)C(=O)N[C@H](C(=O)N2CCCCC2)CC1=O [pd431] ([NPrGly][NMeF]I[NMeL]T[NPrGly][NMeF][NMeL]S(CH2CMe2OH)[NMeV]D-Piperidide; lactam N-11) | 1.1e-06
9 | CCCN1CC(=O)N(C)[C@@H](CC(C)C)C(=O)N[C@@H](CC(C)C)C(=O)N(C)[C@@H](Cc2ccccc2)C(=O)N(C)[C@@H](C)C(=O)N[C@H](C(=O)N2CCCCC2)CC(=O)N[C@H](CC(C)C)C(=O)N(C)[C@@H](Cc2ccccc2)C(=O)N[C@@H](COCC(=O)NC(C)(C)C)C(=O)N(C)[C@@H](CC(C)C)C(=O)N[C@@H]([C@@H](C)O)C1=O [pd442] ([dL][NMeF]S(CH2CONHtBu)[NMeL]T[NPrGly][NMeL]L[NMeF][NMeA]D-Piperidide; lactam N-11) | 1.1e-06
10 | CCCCN1CC(=O)N(C)[C@@H](Cc2ccccc2)C(=O)N(C)[C@@H](CC(C)C)C(=O)N[C@@H](CC(C)C)C(=O)N(C)[C@@H](CC(C)C)C(=O)N[C@H](C(=O)N2CCCCC2)CC(=O)N(C)CC(=O)N(C)[C@@H](Cc2ccccc2)C(=O)N[C@@H](CCOCC)C(=O)N(C)[C@@H](CC(C)C)C(=O)N[C@@H]([C@@H](C)O)C1=O [pd445] ([Sar][NMeF][hSer](Et)[NMeL]T[NBuGly][NMeF][NMeL]L[NMeL]D-Piperidide; lactam N-11) | 1.1e-06
11 | CC(C)C[C@H]1C(=O)N[C@H](C(=O)N2CCCCC2)CC(=O)N(C)CC(=O)N(C)[C@@H](Cc2ccccc2)C(=O)N[C@@H](C(C)C)C(=O)N(C)[C@@H](CC(C)C)C(=O)N[C@@H]([C@@H](C)O)C(=O)N(CCN2CCC(F)(F)CC2)CC(=O)N(C)[C@@H](Cc2ccccc2)C(=O)N(C)[C@@H](CC(C)C)C(=O)N[C@@H](COC(C)(C)C)C(=O)N1C [pd455] ([Sar][NMeF]V[NMeL]T[X8][NMeF][NMeL]S(tBu)[NMeL]D-Piperidide; lactam N-11) | 1.1e-06
12 | CC(C)C[C@H]1C(=O)N[C@H](C(=O)N2CCCCC2)CC(=O)N[C@H](C)C(=O)N2C[C@H](N3CCC(F)(F)CC3)C[C@@H]2C(=O)N[C@@H](COC(C)(C)C)C(=O)N(C)[C@@H](CC(C)C)C(=O)N(C)[C@@H](CC(C)C)C(=O)N(C)[C@@H](CC(C)C)C(=O)N[C@@H]([C@@H](C)O)C(=O)N(C)[C@@H](Cc2ccccc2)C(=O)N[C@@H](Cc2ccccc2)C(=O)N1C [pd457] ([dA][X10]S(tBu)[NMeL][NMeL][NMeL]T[NMeF]F[NMeL]D-Piperidide; lactam N-11) | 1.1e-06
13 | CC[C@H]1NC(=O)C[C@@H](C(=O)N2CCCCC2)NC(=O)[C@H](CC(C)C)N(C)C(=O)[C@H](Cc2ccccc2)NC(=O)[C@@H]2C[C@H](N3CCC(F)(F)CC3)CN2C(=O)[C@H]([C@@H](C)O)NC(=O)[C@H](CC(C)C)N(C)C(=O)[C@H](CC(C)C)NC(=O)[C@H](CC(C)C)N(C)C(=O)[C@H](COC(C)(C)C)NC(=O)[C@H](CC(C)C)N(C)C1=O [pd462] ([dAbu][NMeL]S(tBu)[NMeL]L[NMeL]T[X13]F[NMeL]D-Piperidide; lactam N-11) | 1.1e-06
14 | CCCCN1CC(=O)N(C)[C@@H](CC(C)C)C(=O)N[C@H](C(=O)N2CCCCC2)CC(=O)N(C)[C@@H](CC(C)C)C(=O)N[C@@H](CC(C)C)C(=O)N(C)[C@@H](CC(C)C)C(=O)N(C)[C@@H](Cc2cscn2)C(=O)N[C@@H](CC(C)C)C(=O)N(C)[C@@H](Cc2ccccc2)C(=O)N(C)[C@@H]([C@@H](C)CC)C(=O)N[C@@H](CCC(=O)NC)C1=O [pd465] ([NMeL]L[NMeL][NMeAla(4-thiazolyl)]L[NMeF][NMeI]E(NHMe)[NBuGly][NMeL]D-Piperidide; lactam N-11) | 1.1e-06
15 | CCCC[C@@H](O)[C@@H]1NC(=O)[C@H](CC(C)C)N(C)C(=O)[C@H](CC(C)C)NC(=O)[C@H](Cc2ccccc2)N(C)C(=O)[C@@H](C)NC(=O)C[C@@H](C(=O)N2CCCCC2)NC(=O)[C@H](C)N(C)C(=O)[C@H](Cc2ccccc2)N(C)C(=O)[C@H](COC(C)(C)C)NC(=O)[C@H](CC(C)C)N(C)C(=O)CN(C)C1=O [pd466] ([dA][NMeF]L[NMeL][X12][Sar][NMeL]S(tBu)[NMeF][NMeA]D-Piperidide; lactam N-11) | 1.1e-06
16 | CC(C)C[C@H]1C(=O)N[C@@H](COC(C)(C)C)C(=O)N(C)[C@@H](Cc2ccccc2)C(=O)N(C)[C@@H](CC(C)C)C(=O)N[C@H](C(=O)N2CCCCC2)CC(=O)N[C@H](C(C)C)C(=O)N(C)[C@@H](C(C)C)C(=O)N[C@@H](Cc2ccc(C(F)F)cc2)C(=O)N(C)[C@@H](CC(C)C)C(=O)N[C@@H]([C@@H](C)O)C(=O)N(C)CC(=O)N1C [pd472] ([dV][NMeV][Phe(4-CHF2)][NMeL]T[Sar][NMeL]S(tBu)[NMeF][NMeL]D-Piperidide; lactam N-11) | 1.1e-06
17 | CC(C)C[C@H]1C(=O)N[C@@H](COC(C)(C)C)C(=O)N(C)[C@@H](Cc2ccccc2)C(=O)N(C)[C@@H](CC(C)C)C(=O)N[C@H](C(=O)N2CCCCC2)CC(=O)N[C@H](C(C)C)C(=O)N(C)[C@@H](C(C)C)C(=O)N[C@@H](Cc2ccc(OC(F)F)cc2)C(=O)N(C)[C@@H](CC(C)C)C(=O)N[C@@H]([C@@H](C)O)C(=O)N(C)CC(=O)N1C [pd476] ([dV][NMeV]Y(CHF2)[NMeL]T[Sar][NMeL]S(tBu)[NMeF][NMeL]D-Piperidide; lactam N-11) | 1.1e-06
